One test deals with db/db mice. The test can be described thus: Intra-islet heparan sulfate content in db/db mice, Alcian blue staining. It is filed as in vivo, mouse. Conditions: 50 mg/kg daily intraperitoneal injection, versus saline treated db/db and wild-type mice. The method, then: FIG. 6. Intra-islet HS content in pancreas sections in treated db/db mice. Mice were treated daily with 50 mg/kg PI-88 IP from 4 weeks of age. Onset of clinical diabetes was determined by measuring urine glucose twice weekly with Multistix reagent strips and confirmed by measuring non-fasting blood glucose levels in tail vein blood using a MediSense glucometer with hyperglycemia defined as 2 consecutive blood glucose readings of 16 mmol/I or greater. Islet HS was detected by Alcian blue staining.
db/db mice were treated with saline or 50 mg/kg of PI-88 daily by intraperitoneal injection. At the cessation of treatment pancreatic islets were isolated and stained with alcian blue to visualise heparan sulfate and the heparan sulfate content of the islets was assessed by quantitative morphometric analyses.
For the compound PI-88, the “Islet heparan sulfate levels (quantitative morphometric analyses)” value was “increased compared to the saline treated db/db mice and are near to the levels of heparan sulfate in the islets of wild-type mice”.

For the next test, the system named is db/db mice. Nature of the test: Insulin content in pancreas sections/islets of db/db mice (Type 2 diabetes model), anti-insulin antibody staining. Conditions: 50 mg/kg daily intraperitoneal injection, versus saline treated db/db and wild-type mice. It is filed as in vivo, mouse. The method, then:
FIG. 5. Insulin content in pancreas sections in db/db mice a model of Type 2 diabetes. Mice were treated daily with 50 mg/kg PI-88 IP from 4 weeks of age. Onset of clinical diabetes was determined by measuring urine glucose twice weekly with Multistix reagent strips and confirmed by measuring non-fasting blood glucose levels in tail vein blood using a MediSense glucometer with hyperglycemia defined as 2 consecutive blood glucose readings of 16 mmol/I or greater. Insulin was detected by anti-insulin antibody staining.
The db/db mouse has defective leptin signalling resulting from a point mutation in the leptin receptor gene. Plasma insulin levels become elevated very early in life (10-14 days of age), and the affected animals are obese by the time they are 3-4 weeks old. The animals are insulin resistant, hypertriglyceridemic, and have impaired glucose tolerance.
db/db mice were treated with saline or 50 mg/kg of PI-88 by daily intraperitoneal injection. At the cessation of treatment pancreatic islets were isolated and stained for insulin and the level of insulin expression assessed by quantitative morphometric analyses.
For the compound PI-88, the “Expression of insulin in islets (quantitative morphometric analyses)” value is “increased compared to the saline treated db/db mice and is near to the level of insulin expression in the wild-type mice”.

A further test relates to RIP-OVAhi mice. Nature of the test: Adoptive transfer of Type 1 diabetes in transgenic RIP-OVAhi mice (acute Type 1 diabetes model). It counts as in vivo, mouse. To be noted: 10 mg/kg QD, IP, 14 day assay period. The method, then:
FIG. 2. Treatment of RIP-OVA^hi mice from the time of adoptive transfer of OVA-specific OT-1 and activated […] tg T cells with the small molecule heparanase inhibitor BT-2012 (10 mg/kg QD, IP in saline/50% DMSO).
FIG. 3. Treatment of RIP-OVA^hi mice from the time of adoptive transfer of OVA-specific OT-1 and activated OT-II tg T cells with a control heparanase inhibitor, (denoted “BT-1055”) (10 mg/kg QD, IP in saline/20% DMSO).
In NOD mice, the autoimmune disease process develops slowly because of the asynchronous destruction of the beta cells in different islets. Indeed Type 1 diabetes develops only after >90% of the total islet beta cell mass has been destroyed. The slow course of the disease in NOD mice offers realistic potential for immune intervention but, unfortunately, high throughput screening of test drugs is not feasible. A more acute model of diabetes can be induced experimentally using RIP-OVAhi transgenic mice which express a foreign ovalbumin (OVA) peptide, under the control of the rat insulin promoter (RIP), only in islet beta cells. Following adoptive transfer of naïve OVA specific CD8+ (OT-I) and activated OVA-specific CD4+ (OT-II) transgenic T cells, the transgenic T cells traffic to the host lymph nodes where the OT-I T cells become activated and then to the OVA-expressing pancreatic islets where they rapidly induce islet beta cell destruction and diabetes, all mice succumbing to rapid onset of high blood glucose levels (hyperglycaemia) in the second week after cell transfer. […]
Using the RIP-OVAhi transgenic mice the effect of a heparanase inhibitor compound (denoted “BT-1055”) was tested for its effect on blood glucose levels. Following adoptive transfer of naïve OVA specific CD8+ (OT-I) and activated OVA-specific CD4+ (OT-II) transgenic T cells into a number of RIP-OVAhi mice blood glucose was monitored regularly over two weeks in populations of mice treated with BT-1055 and a control group administered saline (FIG. 3).
Consider `COc1cc2[nH]c(=S)n(CCc3c[nH]c4ccccc34)c(=N)c2cc1OC` [BT2012], for which the “Individual treated mice in which blood glucose remained normal” value was found to be 50%.

The same test, now with this note: 10 mg/kg QD, IP, from the time of adoptive transfer of OT-I and activated OT-II tg T cells.
For the compound `COc1cc2[nH]c(=S)n(CCc3c[nH]c4ccccc34)c(=N)c2cc1OC` [BT2012], the “Incidence of diabetes (blood glucose >12 mmol) reduced” value turned out to be 50%.

Still in this test, the particulars now being: 10 mg/kg, by 14 days after transfer.
With `COc1cc2[nH]c(=S)n(CCc3c[nH]c4ccccc34)c(=N)c2cc1OC` [BT2012], the “Protection from Type 1 diabetes induction following adoptive transfer of diabetogenic tg T cells” value is reported as “protected RIPOVAhi mice from Type 1 diabetes induction”.

In a further test the target is T1, heparanase (Homo sapiens, UniProt Q9Y251).
T1 sequence (Q9Y251 158-543 limits assumed): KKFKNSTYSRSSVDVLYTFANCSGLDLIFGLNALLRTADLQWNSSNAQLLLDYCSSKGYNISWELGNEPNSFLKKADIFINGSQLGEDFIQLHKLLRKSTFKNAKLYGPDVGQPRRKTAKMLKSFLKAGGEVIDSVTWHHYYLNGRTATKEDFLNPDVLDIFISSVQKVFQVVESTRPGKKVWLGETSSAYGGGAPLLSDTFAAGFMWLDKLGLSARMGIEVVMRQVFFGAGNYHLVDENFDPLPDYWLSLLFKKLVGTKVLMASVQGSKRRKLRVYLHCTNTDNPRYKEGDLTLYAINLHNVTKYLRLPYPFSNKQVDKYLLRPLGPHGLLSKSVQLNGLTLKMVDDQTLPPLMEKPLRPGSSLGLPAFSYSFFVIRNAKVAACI
T1 sequence (Q9Y251 36-109 limits assumed): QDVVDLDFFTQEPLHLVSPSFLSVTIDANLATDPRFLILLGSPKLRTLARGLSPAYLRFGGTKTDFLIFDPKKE
Nature of the test: Heparanase inhibition (IC50). It counts as biochemical. To be noted: Heparanase inhibition IC50. Here is the method:
Heparanase inhibition was determined using standard methods and the results expressed as the half maximal inhibitory concentration (IC50) being the concentration of the compound of the invention required to achieve 50% inhibition of heparanase.
As to `COc1cc2[nH]c(=S)n(CCn3cc(C(=O)NCCN4CCOCC4)c4ccccc43)c(=N)c2cc1OC` [BT2104], the IC50 was 44.8 µM.

Still in this test, the particulars now being: read-out: Heparanase inhibition IC50.
As to `COc1cc2[nH]c(=S)n(CCc3c[nH]c4ccccc34)c(=N)c2cc1OC` [BT2012], the half-inhibitory concentration (IC50) stood at 14.8 µM.
Regarding `COc1ccc2[nH]c(=S)n(CCc3c[nH]c4ccccc34)c(=N)c2c1` [BT2014], the IC50 turned out to be 49.3 µM.
On the same count and under the same terms, the same measure for `COc1ccc(OC)c(Cn2c(=S)[nH]c3cc(OC)c(OC)cc3c2=N)c1` [BT2022]: 37.2 µM; for `COc1cc2[nH]c(=S)n(CCc3cn(C)c4ccccc34)c(=N)c2cc1OC` [BT2024]: 27.4 µM.
Still for that read-out and setting: to `COc1ccc(Cn2c(=S)[nH]c3cc(OC)c(OC)cc3c2=N)c(OC)c1` [BT2027] belongs 40.1 µM; to `COc1cc2[nH]c(=S)n(CCc3c[nH]c4ccccc34)c(=N)c2cc1OC` [BT2044], 30 µM.
With `COc1ccc2[nH]cc(CCn3c(=S)[nH]c4cc(OC)c(OC)cc4c3=N)c2c1` [BT2046], the IC50 is 9.4 µM.
Take `COc1cc2[nH]c(=S)n(CCc3c[nH]c4ccc(-c5cccnc5)cc34)c(=N)c2cc1OC` [BT2055]: the IC50 came to 19.1 µM.
With `COc1cc2[nH]c(=S)n(CCNC(=O)c3cc4ccc(-c5ccc(C(=O)N6CCN(C)CC6)cc5)cc4[nH]3)c(=N)c2cc1OC` [BT2073], the IC50 turned out to be 51 µM.
On the same count and under the same terms, the same measure for `COc1cc2[nH]c(=S)n(CCNC(=O)c3cc4cc(-c5ccc(N6CCN(C)CC6)nc5)ccc4[nH]3)c(=N)c2cc1OC` [BT2075]: 20.6 µM; for `COc1cc2[nH]c(=S)n(CCNC(=O)c3cc4ccc(-c5ccc(N6CCN(C)CC6)nc5)cc4[nH]3)c(=N)c2cc1OC` [BT2076]: 12.4 µM.
On the same count and under the same terms, to `COc1cc2[nH]c(=S)n(CCNC(=O)c3cc4cc(-c5cnn(C)c5)ccc4[nH]3)c(=N)c2cc1OC` [BT2078] belongs 34.8 µM.
The same measure, in the same setting: to `COc1cc2[nH]c(=O)n(CCNC(=O)c3cc4cc(C(=O)N5CCC5)ccc4[nH]3)c(=N)c2cc1OC` [BT2080] belongs 90.4 µM.
`COc1cc2[nH]c(=O)n(CCNC(=O)c3cc4cc(C(=O)N5CCOCC5)ccc4[nH]3)c(=N)c2cc1OC` [BT2081]: the IC50 is 90.4 µM.
Same read-out and setting: to `COc1cc2[nH]c(=S)n(CCNC(=O)c3cc4cc(C(=O)N5CCOCC5)ccc4[nH]3)c(=N)c2cc1OC` [BT2082] belongs 35 µM; to `COc1cc2[nH]c(=S)n(C3CN(C(=O)c4cc5cc(-c6cccnc6)ccc5[nH]4)C3)c(=N)c2cc1OC` [BT2085], 1.3 µM; to `COc1cc2[nH]c(=S)n(CCNC(=O)c3cccc(-c4ccccc4)n3)c(=N)c2cc1OC` [BT2115], 19.7 µM.
Still for that read-out and setting: to `COc1cc2[nH]c(=S)n(CCNC(=O)c3cccc(-c4ccc(C(=O)N5CCN(C)CC5)cc4)n3)c(=N)c2cc1OC` [BT2116] belongs 12.8 µM.
`COc1cc2[nH]c(=S)n(CCNC(=O)c3cccc(-c4ccc5nonc5c4)n3)c(=N)c2cc1OC` [BT2117]: the IC50 worked out at 12.5 µM.
Consider `COc1cc2[nH]c(=S)n(CCNC(=O)c3ccc(-c4ccccc4)nc3)c(=N)c2cc1OC` [BT2125], for which the IC50 was 15.6 µM.
Still for that read-out and setting: to `COc1cc2[nH]c(=S)n(CCNC(=O)c3nnc(-c4ccccc4)o3)c(=N)c2cc1OC` [BT2132] belongs 58.6 µM; to `COc1cc2nc(SCc3ccccc3)n(CCNC(=O)c3cc4ccccc4[nH]3)c(=N)c2cc1OC` [BT2135], 64 µM; to `COc1cc2nc(SCc3ccc(C(F)(F)F)cc3)n(C3CN(C(=O)c4cc5ccc(-c6cccnc6)cc5[nH]4)C3)c(=N)c2cc1OC` [BT2139], 13 µM.
Take `COc1cc2nc(SCc3ccc(C(F)(F)F)cc3)n(C3CN(C(=O)c4cc5ccc(-c6cccnc6)cc5[nH]4)C3)c(=N)c2cc1OC` [BT2140]: the IC50 came out at 37.5 µM.
Still for that read-out and setting: the same measure for `COc1cc2nc(SC)n(C3CN(C(=O)c4cc5ccc(-c6cccnc6)cc5[nH]4)C3)c(=N)c2cc1OC` [BT2141]: 23.6 µM; for `COc1cc2nc(SCc3ccc(OC(F)(F)F)cc3)n(C3CN(C(=O)c4cc5ccc(-c6cccnc6)cc5[nH]4)C3)c(=N)c2cc1OC` [BT2142]: 7 µM; for `COc1cc2nc(SC)n(C3CN(C(=O)c4cc5ccc(-c6cccnc6)cc5[nH]4)C3)c(=N)c2cc1OC` [BT2143]: 33 µM.
For the compound `COc1cc2[nH]c(=S)n(CCNC(=O)c3nnc(-c4ccccc4)o3)c(=N)c2cc1OC` [BT2144], the IC50 came to 59.9 µM.
Still for that read-out and setting: the same measure for `COc1cc2nc(SCc3ccc(OC(F)(F)F)cc3)n(C3CN(C(=O)c4cc5ccc(-c6cccnc6)cc5[nH]4)C3)c(=N)c2cc1OC` [BT2145]: 22 µM.

For orientation: IC50 means the concentration needed to halve the response being measured.

These data come from patent US11787783B2, “Heparanase inhibitors and use thereof” (Beta Therapeutics Pty Ltd, priority 2016, dated 2023).
